Source: PubChem BioAssay AID652241 (Broad Institute, 2013)
Results filed as inconclusive are left out. Active and inactive are the calls of the source.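 How the source made its calls: active means fitted curve reaches activity 50 in the expected rising direction at or below the top valid tested dose; inconclusive means no clear call, values can overlap the other calls; inactive means activity in the wrong direction, and the rest.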

The molecules below were run against Virion infectivity factor (Human immunodeficiency virus type 1 group M subtype B (isolate BH10)) + Virion infectivity factor (Human immunodeficiency virus type 1 group M subtype B (isolate BRU/LAI)) + Virion infectivity factor (Human immunodeficiency virus type 1 group M subtype B (isolate PCV12)) + Virion infectivity factor (Human immunodeficiency virus type 1 group M subtype B (isolate HXB2)) (UniProt P69720+P69721+P69722+P69723) (assay: dose-dependent disruption of HIV Vif self-association – imaging, HEK293T, cherry-picks, dose response (AID 652241;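 further: imaged cell signal that rises when Vif self-association is disrupted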)). Settings: HEK293T Vif multimerization imaging, 24 h.
Virion infectivity factor (Human immunodeficiency virus type 1 group M subtype B (isolate BH10)) + Virion infectivity factor (Human immunodeficiency virus type 1 group M subtype B (isolate BRU/LAI)) + Virion infectivity factor (Human immunodeficiency virus type 1 group M subtype B (isolate PCV12)) + Virion infectivity factor (Human immunodeficiency virus type 1 group M subtype B (isolate HXB2)), sequence (P69720 whole entry, looked up): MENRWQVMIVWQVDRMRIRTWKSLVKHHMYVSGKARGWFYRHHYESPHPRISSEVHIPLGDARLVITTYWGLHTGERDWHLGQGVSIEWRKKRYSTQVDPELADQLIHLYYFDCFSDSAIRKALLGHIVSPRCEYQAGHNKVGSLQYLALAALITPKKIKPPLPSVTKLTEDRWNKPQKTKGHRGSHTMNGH
Virion infectivity factor (Human immunodeficiency virus type 1 group M subtype B (isolate BH10)) + Virion infectivity factor (Human immunodeficiency virus type 1 group M subtype B (isolate BRU/LAI)) + Virion infectivity factor (Human immunodeficiency virus type 1 group M subtype B (isolate PCV12)) + Virion infectivity factor (Human immunodeficiency virus type 1 group M subtype B (isolate HXB2)), sequence (P69721 whole entry, looked up): as the sequence (P69720 whole entry, looked up) above
Virion infectivity factor (Human immunodeficiency virus type 1 group M subtype B (isolate BH10)) + Virion infectivity factor (Human immunodeficiency virus type 1 group M subtype B (isolate BRU/LAI)) + Virion infectivity factor (Human immunodeficiency virus type 1 group M subtype B (isolate PCV12)) + Virion infectivity factor (Human immunodeficiency virus type 1 group M subtype B (isolate HXB2)), sequence (P69722 whole entry, looked up): as the sequence (P69720 whole entry, looked up) above
Virion infectivity factor (Human immunodeficiency virus type 1 group M subtype B (isolate BH10)) + Virion infectivity factor (Human immunodeficiency virus type 1 group M subtype B (isolate BRU/LAI)) + Virion infectivity factor (Human immunodeficiency virus type 1 group M subtype B (isolate PCV12)) + Virion infectivity factor (Human immunodeficiency virus type 1 group M subtype B (isolate HXB2)), sequence (P69723 whole entry, looked up): as the sequence (P69720 whole entry, looked up) above

SMILES	AC50
O=C(/C=C/c1ccccc1)Nc1ncn[nH]1	19.5 µM
COc1ccc(-n2nc(C(=O)NCC(=O)Nc3cccc(Cl)c3)c3ccccc3c2=O)cc1OC	8.05 µM
CCc1ccc2[nH]c3nc(SCC(=O)NNC(=O)c4ccc(C(C)(C)C)cc4)nnc3c2c1	7.22 µM
N#Cc1c(C(F)(F)F)cc(-c2ccco2)nc1SCc1ccncc1	15.8 µM
Cn1nnnc1Sc1ncnc2scc(-c3ccc(Cl)cc3)c12	3.75 µM
COc1ccc(CC(=O)Nc2ccc(-c3noc(-c4cc(OC)c(OC)c(OC)c4)n3)cc2)cc1	13 µM
Cc1cc(C)c2nc3sc(C(=O)N4CCOCC4)c(N)c3cc2c1	1.85 µM
COc1ccccc1C1C2=C(COC2=O)Nc2cc3c(cc21)OCO3 (centres undefined)	1.99 µM
Cc1nc(-c2ccc(O)c(O)c2)cs1	> 19.5 µM (inactive)
CCOC(=O)c1[nH]c2c(c1C)C(=O)CC(c1ccco1)C2 (centres undefined)	5.79 µM
CCc1ccc(S(=O)(=O)Nc2ccc(-c3ccc4nnc(C)n4n3)cc2)s1	11.4 µM
Oc1ccc(-c2nc(-c3ccc(O)c(O)c3)cs2)cc1	9.83 µM
COc1ccc(NC(=O)C2(C)Cc3c(-c4cccc(NC(C)=O)c4)ccnc3O2)cn1 (centres undefined)	8.99 µM
COc1cc(NC(=O)c2ccc(-c3csc(C)n3)cc2)c(OC)cc1Cl	10.3 µM
Cc1nnc2ccc(-c3ccc(NS(=O)(=O)c4ccc(F)cc4F)cc3)nn12	> 19.5 µM (inactive)
CCOc1cc(/C=C2\CN(CC)C/C(=C\c3ccc(O)c(OCC)c3)C2=O)ccc1O	7.26 µM
Cc1ccc(C(c2cc(Cl)c3cccnc3c2O)N2CCN(C)CC2)cc1 (centres undefined)	5.7 µM
O=C(NC1(C(F)(F)F)Oc2ccc(Cl)cc2O1)N1CCC2(CC1)OCCO2 (centres undefined)	7.65 µM
Cc1cc2cc(C#N)c(SCC(=O)Nc3nonc3C)nc2cc1C	8.45 µM
COc1ccc(S(=O)(=O)N2c3cc(Cl)ccc3Oc3nc4ccccc4nc32)cc1	3.14 µM
COC(=O)c1ccc(Oc2coc3cc(OCc4cnn(-c5ccccc5)c4)ccc3c2=O)cc1	17.2 µM
CCN1C(=O)c2cccc3c(S(=O)(=O)Nc4nc(C)cs4)ccc1c23	15.1 µM
COC(=O)c1ccc(NCc2cc(O)ccc2O)cc1O	10.9 µM

Same assay, conditions: HEK293T Vif multimerization imaging, 24 h; at 2.1 µM (top of the series)

SMILES	activity, higher = inhibition
COc1ccc(/C=C2\CN(Cc3ccccc3)C/C(=C\c3ccc(OC)c(O)c3)C2=O)cc1O	inactive

Same assay, conditions: HEK293T Vif multimerization imaging, 24 h; at 6.8 µM (top of the series)

SMILES	activity, higher = inhibition
CCc1nnc(NC(=O)c2sc3nc4cc(C)ccc4cc3c2N)s1	inactive
COc1cc(Nc2nc3ccccc3n3nnnc23)cc(OC)c1OC	inactive
O=C1Nc2ccccc2S/C1=C/Nc1cccc(Cl)c1	inactive
CCCN1C(=O)/C(=C\C=C2\N(CC)c3ccccc3C2(C)C)SC1=S	inactive
COc1ccc(C(=O)c2sc3nc(C)cc(-c4cccs4)c3c2N)cc1OC	inactive

Same assay, conditions: HEK293T Vif multimerization imaging, 24 h; at 19.5 µM (top of the series)

SMILES	activity, higher = inhibition
S=C(NC1CC1)N1CCc2ccccc2C1	inactive
CCN(CC(=O)Nc1c(F)cccc1F)C(=O)c1cccc(-n2cccc2)c1	inactive
CCOc1nc(N2CCCCC2)nc(-n2cc(-c3ccccc3)nn2)n1	inactive
CCN(CC)C(=O)c1ccc(C(=O)c2c(C)cc(C)cc2C)cc1	inactive
Cc1ccc(C(=O)NC(CCc2ccccc2)C(=O)O)cc1 (centres undefined)	inactive
CCn1c(/C=C/c2ccc(F)cc2)nc2ccccc2c1=O	inactive
O=C(c1cc(Cl)c(=O)n(Cc2ccccc2)c1)N1CCOCC1	inactive
CCOC(=O)C[C@@H](C#N)NC(=O)[C@@H]1CCCN1C(=O)[C@@H](NC(=O)c1ccc(N)c(Cl)c1)C(C)(C)C	inactive
CCC(C)n1c(-c2cccs2)nc2nc3ccccc3nc21 (centres undefined)	inactive
CCCn1c(=N)c(C(=O)NCc2ccc3c(c2)OCO3)cc2c(=O)n3cccc(C)c3nc21	inactive
CCOC(=O)Nc1ccc(NCc2ccc(F)cc2)nc1N	inactive
CCNC(=O)[C@H]1O[C@@H](n2cnc3c(N)nc(NCCc4ccc(CCC(=O)O)cc4)nc32)[C@H](O)[C@@H]1O	inactive
COc1ccc(C(=O)Nc2cc(OC)c(NC(=O)Nc3ccccc3)cc2OC)cc1	inactive
O=C(Nc1ccc2c(c1)nc1n2CCOC1)c1ccccc1	inactive
NC(=O)c1sc2nc(-c3ccccc3)ccc2c1N	inactive
CCN(C(=O)COc1ccc(C)cc1OC)c1cccc2ccccc12	inactive
CCN(CC)C(=O)c1cccc(NC(=O)C2=COCCO2)c1	inactive
CN(C)c1ccc(/C=C/C(=O)c2ccc3c(c2)OCO3)cc1	inactive
CCOC(=O)C1CCCN(CC(=O)Nc2c(C(=O)OC)[nH]c3ccc(Cl)cc23)C1 (centres undefined)	inactive
Cc1ccc(C(=O)COC(=O)c2cc(=O)[nH]c3ccccc23)cc1C	inactive
COc1cc(NC(=O)c2ccc(C)cc2C)ccc1NC(=O)c1cccs1	inactive
CCCOc1ccc(C(O)(CCC)CCN2CCCCC2)cc1 (centres undefined)	inactive
Cc1cc(C(=O)Nc2c(F)c(F)c(F)c(F)c2F)n(-c2ccccc2)n1	inactive
CCOC(=O)C1CCN(S(=O)(=O)c2cccc(-c3cn4cc(C)ccc4n3)c2)CC1	inactive
COc1ccc(-c2nc(-c3ccccn3)nc(N3CCN(C)CC3)c2C#N)cc1	inactive
O=C(Cn1c(=O)oc2cc(S(=O)(=O)N3CCCCC3)ccc21)N1CCc2ccccc21	inactive
CCC1(CC)NC(=O)N(CC(=O)Nc2ccc(OCc3ccccc3)cc2)C1=O	inactive
CCn1c(SCc2nc3ccccc3c(=O)[nH]2)nc2ccccc2c1=O	inactive

SMILES	activity, higher = inhibition
Cc1ccc2c(c1)N(CC(=O)N1CCCCCC1)C(=O)C(C)O2 (centres undefined)	inactive
O=C(NCC1CC1)NC(=O)c1c(F)cccc1Cl	inactive
CCc1cc2c(Sc3nc4ccccc4s3)ncnc2s1	inactive
Cc1ccc(-n2c(SCC(=O)Nc3ccc4c(c3)OCO4)nnc2-c2cccs2)cc1	inactive
O=C(O)/C=C/C(=O)Nc1cccc(C(F)(F)F)c1	inactive
C/C=C/c1ccc(OCCNCc2ccccc2)c(OC)c1	inactive
Cc1cc(S(=O)(=O)N2CCOCC2)ccc1OCC(=O)NCCN1CCOCC1	inactive
CCn1c(SCc2ccc(C(=O)Nc3nccs3)cc2)nnc1-c1ccc(N)cc1	inactive
O=C(CCc1ccccc1)Nc1ccccc1	inactive
Cc1ccc2c(c1)N(CC(=O)NCC1CCCO1)C(=O)C(C(C)C)O2 (centres undefined)	inactive
Cc1nc(-c2ccccc2OC(F)(F)F)[nH]c(=O)c1Cl	inactive
COc1ccc(CN2C3CCC2CC(NC(=O)c2cc(OC)c(OC)c(OC)c2)C3)cc1 (centres undefined)	inactive
Cc1cc(N2CCN(S(=O)(=O)c3ccc(Cl)c(Cl)c3)CC2)c2ccccc2n1	inactive
NS(=O)(=O)c1ccc(NC(=O)CCC(=O)N2CCOCC2)cc1	inactive
CC(C)OCCCNc1ncnc2c1[nH]c1ccc(F)cc12	inactive
CCOC(=O)C1(Cc2ccccc2)CCN(Cc2csc(C(C)=O)c2)CC1	inactive
O=C(O)CCCCn1c(SCc2ccccc2Cl)nc2ccsc2c1=O	inactive
COc1ccc(-c2coc3cc(O)ccc3c2=O)cc1	inactive
COc1cc(CNCc2ccccc2)c(Br)cc1OC1CCCC1	inactive
Nc1nonc1-c1nc2ccccc2n1CC(=O)NC1CCCC1	inactive
Cc1ccc(Nc2nc(N)nc(CSc3nnc(-c4ccncc4)o3)n2)cc1	inactive
COc1ccc2cc(CCNS(=O)(=O)c3ccc(NC(C)=O)cc3)c(=O)[nH]c2c1	inactive
Cc1cc(C)c(S(=O)(=O)N2CCN(S(=O)(=O)N3CCOCC3)CC2)c(C)c1	inactive
COc1cc(/C=C/C(=O)OCC(=O)N2CCCc3ccccc32)ccc1O	inactive
CC(C)CCNC(=O)CCc1nnc(COc2ccccc2)o1	inactive
CCCCCCOC(=O)C(C#N)c1nc2ccccc2nc1N1CCOCC1 (centres undefined)	inactive
O=C(COC(=O)/C=C/C(=O)OCC(=O)Nc1ccccc1F)Nc1ccccc1F	inactive
